Source: patent publication US9579406B2, “Phospholipid ether analogs as agents for detecting and locating cancer, and methods thereof” (Cellectar, Inc., priority 2004, dated 2017)
“Also recorded” adds a separate entry of the source.

System: TRAMP prostate tumors
Experiment: Bioscan imaging of TRAMP mice prostate tumors
Assay type: in vivo
Settings: 125I label 15 μCi, 1-8 days
Experimental: Following in vivo imaging of anesthetized mice, the prostate tumors were removed immediately, and imaged ex vivo on the same scanner (equipped with high resolution 1 mm collimator and 2-D acquisition and analysis software) in order to avoid tissue attenuation associated with the low energy of iodine-125 (FIG. 21). […] In an attempt to simulate bone metastases another experiment was performed wherein human PC-3 tumor cells were implanted into the tibia of immune compromised NUDE mice (n=6) according to a recent reports. Following tumor cell inoculation, mice were scanned serially by high-resolution microCT in order to monitor bone tumor development (FIG. 22). Once bone deterioration was detected, iodine-125 labeled NM404 was administered intravenously via tail vein. Mice were scanned for radioactivity and by microCT 4 days post NM404 administration. Radioactivity scans were fused with microCT scans (FIG. 23) to corroborate NM404 radioactivity and tumor location.

## C[N+](C)(C)CCOP(=O)([O-])OCCCCCCCCCCCCCCCCCCc1ccc(I)cc1 [NM-404, 18-(4-iodophenyl)-octadecylphosphocholine]
  uptake into prostate tumor and benign hyperplasia: uptake of NM404 into prostate tumor but not benign hyperplasia; also recorded: intense uptake of radioactivity in the prostate tumor
